≈ marks a conversion by molar mass, not a printed value.
Experiments:
Mus musculus [1] = assay: Inhibition of EGFR L858R/[…] double mutant phosphorylation in human NCI-H1975 cells xenografted in SCID mouse at 10 mg/kg, po measured 16 hrs post dose; assay type: functional; details: NCI-H1975, 16 h
[2] = molecular target: T1, Insulin-like growth factor 1 receptor (Homo sapiens, UniProt P08069); assay: Inhibition of IGF1R (unknown origin) at 1 uM relative to control
A-431 = assay: Antitumor activity against human A431 cells xenografted in SCID mouse assessed as tumor growth inhibition at 10 mg/kg/day, po qd for 7 days relative to control; assay type: functional; details: Mus musculus, A-431, 168 h, read-out: TGI
Mus musculus [3] = assay: Inhibition of EGFR L858R/[…] double mutant phosphorylation in human NCI-H1975 cells xenografted in SCID mouse at 10 mg/kg, po measured 6 hrs post dose; assay type: functional; details: NCI-H1975, 6 h
Mus musculus [4] = assay: Inhibition of EGFR L858R/[…] double mutant phosphorylation in human NCI-H1975 cells xenografted in SCID mouse at 10 mg/kg, po measured 1 hr post dose; assay type: functional; details: NCI-H1975, 1 h
Mus musculus [5] = assay: Inhibition of EGFR exon 19 deletion activating mutant phosphorylation in human PC9 cells xenografted in SCID mouse at 10 mg/kg, po measured 16 hrs post dose; assay type: functional; details: PC-9, 16 h
NCI-H1975 [6] = assay: Antitumor activity against human NCI-H1975 cells harboring EGFR L858R/[…] double mutant xenografted in SCID mouse assessed as tumor growth inhibition at 10 mg/kg/day, po qd for 7 days relative to control; assay type: functional; details: Mus musculus, NCI-H1975, 168 h, read-out: TGI
Insulin receptor [7] = molecular target: T2, Insulin receptor (Homo sapiens, UniProt P06213); assay: Inhibition of INSR (unknown origin)
[8] = Antitumor activity against human PC9 cells harboring EGFR exon 19 deletion activating mutant xenografted in SCID mouse assessed as tumor growth inhibition at 10 mg/kg/day, po qd for 7 days relative to control; assay type: functional, PC-9; details: Homo sapiens, PC-9, 168 h, read-out: TGI
Mus musculus [9] = assay: Inhibition of EGFR L858R/[…] double mutant phosphorylation in human NCI-H1975 cells xenografted in SCID mouse at 10 mg/kg, po measured 30 hrs post dose; assay type: functional; details: NCI-H1975, 30 h
Insulin receptor [10] = molecular target: T2, Insulin receptor; assay: Inhibition of INSR (unknown origin) at 1 uM relative to control
Mus musculus [11] = assay: Inhibition of EGFR L858R/[…] double mutant phosphorylation in human NCI-H1975 cells xenografted in SCID mouse at 10 mg/kg, po measured 24 hrs post dose; assay type: functional; details: NCI-H1975, 24 h
Mus musculus [12] = assay: Inhibition of EGFR exon 19 deletion activating mutant phosphorylation in human PC9 cells xenografted in SCID mouse at 10 mg/kg, po measured 1 hr post dose; assay type: functional; details: PC-9, 1 h
Mus musculus [13] = assay: Inhibition of EGFR exon 19 deletion activating mutant phosphorylation in human PC9 cells xenografted in SCID mouse at 10 mg/kg, po measured 24 hrs post dose; assay type: functional; details: PC-9, 24 h
Mus musculus [14] = assay: Inhibition of EGFR exon 19 deletion activating mutant phosphorylation in human PC9 cells xenografted in SCID mouse at 10 mg/kg, po measured 6 hrs post dose; assay type: functional; details: PC-9, 6 h
[15] = molecular target: T1, Insulin-like growth factor 1 receptor; assay: Inhibition of IGF1R (unknown origin)
[16] = Lipophilicity, log D of the compound at pH 7.4; assay type: physicochemical; details: buffer
[17] = Thermodynamic solubility of the compound at pH 7.4; assay type: physicochemical; details: buffer, read-out: Therm_solubility
[18] = Intrinsic clearance in human hepatocytes measured per 10^6 cells; assay type: ADME, cell-based, Hepatocyte; details: read-out: CLH
[19] = molecular target: Voltage-gated inwardly rectifying potassium channel KCNH2 (Homo sapiens, UniProt Q12809); assay: Inhibition of human ERG
[20] = Oral bioavailability in Han Wistar rat at 5 mg/kg; assay type: ADME, organism-based; details: in vivo
[21] = Fraction unbound in Han Wistar rat plasma; assay type: ADME, cell-free
[22] = Unbound fraction in human plasma; assay type: ADME, cell-free
[23] = Cytotoxicity against human Calu3 cells assessed as growth inhibition after 72 hrs by SYTOX green nucleic acid staining-based fluorescence assay; assay type: functional, Calu-3; details: Homo sapiens, Calu-3, 72 h
[24] = Cmax in mouse at 10 mg/kg, po; assay type: ADME, organism-based; design: dose 10 mg/kg, route oral; details: in vivo
[25] = Cytotoxicity against human PC9 cells harboring EGFR exon 19 deletion activating mutant assessed as growth inhibition after 72 hrs by SYTOX green nucleic acid staining-based fluorescence assay; assay type: functional, PC-9; details: Homo sapiens, PC-9, 72 h
NCI-H1975 [26] = assay: Cytotoxicity against human NCI-H1975 cells harboring EGFR L858R/[…] double mutant assessed as growth inhibition after 72 hrs by SYTOX green nucleic acid staining-based fluorescence assay; assay type: functional; details: Homo sapiens, NCI-H1975, 72 h
Rattus norvegicus = assay: Clearance in iv dosed Han Wistar rat; assay type: ADME, organism-based; details: in vivo

T1 sequence (P08069 31-736 limits assumed): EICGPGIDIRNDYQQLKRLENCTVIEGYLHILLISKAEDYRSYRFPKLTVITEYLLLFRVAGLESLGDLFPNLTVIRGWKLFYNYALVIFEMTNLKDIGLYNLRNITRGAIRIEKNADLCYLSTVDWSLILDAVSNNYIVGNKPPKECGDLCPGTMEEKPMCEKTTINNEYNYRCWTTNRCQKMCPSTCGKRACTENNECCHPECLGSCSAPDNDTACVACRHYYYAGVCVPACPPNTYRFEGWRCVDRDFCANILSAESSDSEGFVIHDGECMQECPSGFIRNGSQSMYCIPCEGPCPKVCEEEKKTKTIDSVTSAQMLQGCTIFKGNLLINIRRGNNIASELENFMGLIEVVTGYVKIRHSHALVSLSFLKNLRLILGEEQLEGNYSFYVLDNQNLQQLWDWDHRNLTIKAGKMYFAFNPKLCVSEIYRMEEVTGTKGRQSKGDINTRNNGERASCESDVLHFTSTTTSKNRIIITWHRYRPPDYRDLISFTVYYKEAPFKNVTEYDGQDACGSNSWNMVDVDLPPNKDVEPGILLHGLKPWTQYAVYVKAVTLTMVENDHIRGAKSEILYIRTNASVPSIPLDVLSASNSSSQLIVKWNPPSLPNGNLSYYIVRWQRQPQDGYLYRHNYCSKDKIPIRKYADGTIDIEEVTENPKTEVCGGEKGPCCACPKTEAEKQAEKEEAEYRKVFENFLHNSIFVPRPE
T1 sequence (P08069 741-1367 limits assumed): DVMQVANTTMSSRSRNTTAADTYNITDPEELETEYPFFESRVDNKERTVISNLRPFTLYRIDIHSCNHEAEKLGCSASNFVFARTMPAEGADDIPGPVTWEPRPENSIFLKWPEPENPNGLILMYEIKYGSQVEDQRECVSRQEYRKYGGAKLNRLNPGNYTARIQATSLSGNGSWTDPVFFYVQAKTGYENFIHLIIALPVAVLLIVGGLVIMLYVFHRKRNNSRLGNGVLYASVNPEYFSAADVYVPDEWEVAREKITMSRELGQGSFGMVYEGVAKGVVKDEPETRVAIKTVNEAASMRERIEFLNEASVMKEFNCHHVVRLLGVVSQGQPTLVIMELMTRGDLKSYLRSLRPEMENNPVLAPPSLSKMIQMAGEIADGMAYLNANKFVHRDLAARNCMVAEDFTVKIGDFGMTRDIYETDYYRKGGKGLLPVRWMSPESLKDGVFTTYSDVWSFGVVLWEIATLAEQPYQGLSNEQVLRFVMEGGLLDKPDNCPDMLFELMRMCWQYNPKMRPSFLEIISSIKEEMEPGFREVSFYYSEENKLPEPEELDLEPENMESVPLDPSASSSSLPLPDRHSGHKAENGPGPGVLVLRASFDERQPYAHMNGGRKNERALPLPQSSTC
T2 sequence (P06213 28-758 limits assumed): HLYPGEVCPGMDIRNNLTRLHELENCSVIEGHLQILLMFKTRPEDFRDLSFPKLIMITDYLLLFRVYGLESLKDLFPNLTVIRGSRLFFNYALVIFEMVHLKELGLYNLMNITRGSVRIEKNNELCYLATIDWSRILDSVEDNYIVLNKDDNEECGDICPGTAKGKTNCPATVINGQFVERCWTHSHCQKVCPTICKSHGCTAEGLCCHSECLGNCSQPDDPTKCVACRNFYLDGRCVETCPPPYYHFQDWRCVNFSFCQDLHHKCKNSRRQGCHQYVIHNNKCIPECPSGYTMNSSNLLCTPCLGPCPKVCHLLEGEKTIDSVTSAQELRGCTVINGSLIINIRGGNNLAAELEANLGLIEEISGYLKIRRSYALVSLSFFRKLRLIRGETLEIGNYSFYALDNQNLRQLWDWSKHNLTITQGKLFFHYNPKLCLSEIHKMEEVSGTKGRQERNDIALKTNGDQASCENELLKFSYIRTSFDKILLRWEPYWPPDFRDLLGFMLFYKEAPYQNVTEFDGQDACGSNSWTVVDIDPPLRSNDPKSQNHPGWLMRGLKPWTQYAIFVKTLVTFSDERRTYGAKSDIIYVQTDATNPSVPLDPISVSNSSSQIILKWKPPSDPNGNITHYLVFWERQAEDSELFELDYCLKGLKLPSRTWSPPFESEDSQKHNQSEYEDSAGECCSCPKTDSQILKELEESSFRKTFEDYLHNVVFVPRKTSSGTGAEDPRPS
T2 sequence (P06213 763-1382 limits assumed): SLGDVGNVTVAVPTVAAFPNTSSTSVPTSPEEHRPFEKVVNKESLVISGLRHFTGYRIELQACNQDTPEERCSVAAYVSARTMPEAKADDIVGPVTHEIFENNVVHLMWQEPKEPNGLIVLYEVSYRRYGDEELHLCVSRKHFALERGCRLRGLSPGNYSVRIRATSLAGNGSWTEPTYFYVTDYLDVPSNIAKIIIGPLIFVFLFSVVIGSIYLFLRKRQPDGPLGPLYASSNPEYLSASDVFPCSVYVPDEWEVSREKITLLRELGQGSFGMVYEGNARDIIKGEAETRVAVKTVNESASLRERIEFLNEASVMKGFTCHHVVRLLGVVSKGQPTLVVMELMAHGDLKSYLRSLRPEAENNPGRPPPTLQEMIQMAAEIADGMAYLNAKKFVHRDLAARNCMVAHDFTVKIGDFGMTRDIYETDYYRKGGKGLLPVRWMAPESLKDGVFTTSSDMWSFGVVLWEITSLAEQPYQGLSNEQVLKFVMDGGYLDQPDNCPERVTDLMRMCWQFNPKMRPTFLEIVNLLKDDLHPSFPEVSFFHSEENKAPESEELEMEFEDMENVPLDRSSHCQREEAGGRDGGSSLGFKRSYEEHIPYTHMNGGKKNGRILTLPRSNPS
Voltage-gated inwardly rectifying potassium channel KCNH2, sequence (Q12809 whole entry): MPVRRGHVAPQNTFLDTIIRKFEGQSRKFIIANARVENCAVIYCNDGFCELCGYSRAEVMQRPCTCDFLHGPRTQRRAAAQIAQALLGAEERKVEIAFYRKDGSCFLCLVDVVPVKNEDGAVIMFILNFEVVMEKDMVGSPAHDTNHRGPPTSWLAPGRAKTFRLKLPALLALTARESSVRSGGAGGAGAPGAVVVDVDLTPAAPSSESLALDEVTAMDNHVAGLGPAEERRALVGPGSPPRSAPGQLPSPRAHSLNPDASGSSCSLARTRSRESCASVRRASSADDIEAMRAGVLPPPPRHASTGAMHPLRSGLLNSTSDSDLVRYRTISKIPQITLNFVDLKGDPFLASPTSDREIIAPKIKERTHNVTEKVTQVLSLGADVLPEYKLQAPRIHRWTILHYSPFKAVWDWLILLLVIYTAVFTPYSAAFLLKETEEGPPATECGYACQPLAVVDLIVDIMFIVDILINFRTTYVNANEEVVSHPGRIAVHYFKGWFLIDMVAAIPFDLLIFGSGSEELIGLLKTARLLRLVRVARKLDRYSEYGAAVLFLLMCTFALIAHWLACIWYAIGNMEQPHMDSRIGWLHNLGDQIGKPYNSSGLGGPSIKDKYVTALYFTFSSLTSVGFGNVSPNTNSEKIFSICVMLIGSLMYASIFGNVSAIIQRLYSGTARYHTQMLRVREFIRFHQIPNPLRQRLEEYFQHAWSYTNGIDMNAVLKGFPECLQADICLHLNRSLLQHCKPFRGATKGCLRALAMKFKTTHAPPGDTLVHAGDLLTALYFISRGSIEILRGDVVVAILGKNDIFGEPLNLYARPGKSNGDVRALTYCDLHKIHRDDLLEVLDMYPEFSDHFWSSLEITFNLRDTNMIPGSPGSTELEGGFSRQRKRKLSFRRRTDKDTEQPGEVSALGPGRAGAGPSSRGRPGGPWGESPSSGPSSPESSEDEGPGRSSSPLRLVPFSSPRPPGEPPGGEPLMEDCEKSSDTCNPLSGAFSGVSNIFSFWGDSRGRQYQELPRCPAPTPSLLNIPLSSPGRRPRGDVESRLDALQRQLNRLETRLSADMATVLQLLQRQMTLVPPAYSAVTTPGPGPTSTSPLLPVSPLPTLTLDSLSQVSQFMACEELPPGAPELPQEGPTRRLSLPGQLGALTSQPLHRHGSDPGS

C=CC(=O)Nc1cc(Nc2ncc(Cl)c(-c3cnn4ccccc34)n2)c(OC)cc1N1CC(N(C)C)C1
inhibition in vivo at 10 mg/kg (Mus musculus [1]): 82% | inhibition [2]: 97% | inhibition in vivo at 10 mg/kg/day (A-431): 16% | inhibition in vivo at 10 mg/kg (Mus musculus [3]): 99% | inhibition in vivo at 10 mg/kg (Mus musculus [4]): 37% | inhibition in vivo at 10 mg/kg (Mus musculus [5]): 52% | inhibition in vivo at 10 mg/kg/day (NCI-H1975 [6]): 113% | IC50 (Insulin receptor [7]): 35 nM | inhibition in vivo at 10 mg/kg/day [8]: 169% | inhibition in vivo at 10 mg/kg (Mus musculus [9]): 50% | inhibition (Insulin receptor [10]): 98% | inhibition in vivo at 10 mg/kg (Mus musculus [11]): 79% | inhibition in vivo at 10 mg/kg (Mus musculus [12]): 57% | inhibition in vivo at 10 mg/kg (Mus musculus [13]): 19% | inhibition in vivo at 10 mg/kg (Mus musculus [14]): 85% | IC50 [15]: 26 nM

C=CC(=O)Nc1cc(Nc2ncc(Cl)c(-c3cnn4ccccc34)n2)c(OC)cc1N1CC[C@@H](N(C)C)C1
inhibition [2]: 98% | inhibition in vivo at 10 mg/kg/day (A-431): 27% | inhibition in vivo at 10 mg/kg (Mus musculus [3]): 94% | IC50 (Insulin receptor [7]): 21 nM | inhibition in vivo at 10 mg/kg/day [8]: 227% | inhibition (Insulin receptor [10]): 98% | inhibition in vivo at 10 mg/kg (Mus musculus [11]): 88% | inhibition in vivo at 10 mg/kg (Mus musculus [13]): 68% | inhibition in vivo at 10 mg/kg (Mus musculus [14]): 76% | IC50 [15]: 7 nM

C=CC(=O)Nc1cc(Nc2ncc(Cl)c(-c3cnn4ccccc34)n2)c(OC)cc1N1CCN(C(=O)[C@@H]2CCCCN2)CC1
logD [16]: 2.2

C=CC(=O)Nc1cc(Nc2ncc(C#N)c(-c3cn(C)c4ccccc34)n2)c(OC)cc1N(C)CCN(C)C
solubility thermodynamic [17]: 57 µM (≈ 29.9 µg/mL) | hepatocyte CLint [18]: 10 µL/min/1e6 cells | IC50 [19]: 4300 nM | bioavailability [20]: 6% | fraction unbound [21]: 0.11 | fraction unbound [22]: 0.089 | GI50 [23]: 101 nM | Cmax [24]: 110 nM | GI50 [25]: 0.8 nM | logD [16]: 2.7 | GI50 (NCI-H1975 [26]): 2 nM | IC50 [15]: 38 nM | clearance (Rattus norvegicus): 62 mL/min/kg

C=CC(=O)Nc1cc(Nc2ncc(Cl)c(-c3cnn4ccccc34)n2)c(OC)cc1N1CCN(C(=O)CNC)CC1
logD [16]: 1.8

C=CC(=O)Nc1cc(Nc2ncc(Cl)c(-c3cnn4ccccc34)n2)c(OC)cc1N1CCN(C(=O)CN(C)C)CC1
logD [16]: 2.6

C=CC(=O)Nc1cc(Nc2ncc(C)c(-c3cn(C)c4ccccc34)n2)c(OC)cc1N(C)CCN(C)C
IC50 [15]: 196 nM

C=CC(=O)Nc1cc(Nc2ncc(Cl)c(-c3cnn4ccccc34)n2)c(OC)cc1N1CCN(C(=O)[C@H]2CCCCN2)CC1
logD [16]: 2.2

Reference: ChEMBL document CHEMBL3351341, “Discovery of a potent and selective EGFR inhibitor (AZD9291) of both sensitizing and T790M resistance mutations that spares the wild type form of the receptor” (J Med Chem, 2014)
